Experimental data: patent US20230174484A1, “ANTAGONISTS OF GPR39 PROTEIN” (Oregon Health & Science University, priority 2020, published 2023)

Each molecule was assayed against T1, human GPR39 receptor (Homo sapiens, UniProt O43194) (assay: Measurement of intracellular calcium response in PC3 cells (FLIPR), antagonism of the C3 agonist response). Settings: functional pKi (modified Cheng-Prusoff), inhibition of the C3 (TC-G 1008) response at EC90, 30 μM ZnCl2, read-out: fpKi activity.
T1 construct: PC3 Cells, Expressing the Endogenous Human GPR39 Receptor; endogenous in cells; host or cells: PC3 (human prostate adenocarcinoma) cells
T1 sequence (O43194 1-453): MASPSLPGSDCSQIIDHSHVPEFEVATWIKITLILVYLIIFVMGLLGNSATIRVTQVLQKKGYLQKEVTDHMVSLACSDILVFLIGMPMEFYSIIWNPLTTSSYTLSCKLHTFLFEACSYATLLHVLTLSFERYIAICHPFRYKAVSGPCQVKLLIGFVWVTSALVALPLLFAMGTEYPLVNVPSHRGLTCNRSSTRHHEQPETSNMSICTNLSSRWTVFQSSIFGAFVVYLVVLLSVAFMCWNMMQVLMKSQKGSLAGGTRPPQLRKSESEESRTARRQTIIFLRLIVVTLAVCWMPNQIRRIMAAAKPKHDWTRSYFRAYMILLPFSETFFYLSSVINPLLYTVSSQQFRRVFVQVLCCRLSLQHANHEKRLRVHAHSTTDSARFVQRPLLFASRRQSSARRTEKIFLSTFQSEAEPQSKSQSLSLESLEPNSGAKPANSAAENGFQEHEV
Type: cell-based
Method in brief: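 PC3 cells with endogenous human GPR39 were loaded with Calcium-6 and read by FLIPR, with compounds tested in buffer with 30 μM final ZnCl2 and 0.32% DMSO. Peak Ca2+ signal was scored as % inhibition of the EC90 C3 response, fitted by four-parameter logistic. Functional pKi was derived via the modified Cheng-Prusoff equation.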

`Cc1nnc(-c2ccc(C(=O)N3CCN(C)CC3c3ccccc3)c(N3CCCC3)c2)[nH]1` (single isomer, unassigned) [Example 150b, (2R or 2S) (4-methyl-2-phenylpiperazin-1-yl)-[4-(5-methyl-4H-1,2,4-triazol-3-yl)-2-pyrrolidin-1-ylphenyl]methanone] and `CN1CCN(C(=O)c2ccc(-c3nccn3C)cc2N2CCCC2)C(c2ccccc2)C1` (racemic) [Example 121, [4-(1-methylimidazol-2-yl)-2-pyrrolidin-1-ylphenyl]-(4-methyl-2-phenylpiperazin-1-yl)methanone] fall in the same range of Ki: 1.26 to 6.31 µM for the first, 1.26 to 6.31 µM for the second.

Compared with `O=C(Nc1ccc(C(=O)N2CCC(C(F)(F)F)CC2)c(N2CCCC2)c1)C1CC1` [Example 61, N-[3-pyrrolidin-1-yl-4-[4-(trifluoromethyl)piperidine-1-carbonyl]phenyl]cyclopropanecarboxamide], `CCOC1CCN(C(=O)c2ccc(NC(=O)C3CC3)cc2N2CCCCCC2)CC1` [Example 48, N-(3-(azepan-1-yl)-4-(4-ethoxypiperidine-1-carbonyl)phenyl)cyclopropanecarboxamide] is higher in Ki: 0.0631 to 0.251 µM for the first, 0.316 to 1 µM for the second. The first binds more tightly here.

Compared with `CN1CCN(C(=O)c2ccc(NC(=O)C3CC3)cc2-n2ccc(C(F)(F)F)n2)C(c2ccccc2)C1` (stereo not shown) [Example 206, N-[4-(4-methyl-2-phenylpiperazine-1-carbonyl)-3-[3-(trifluoromethyl)pyrazol-1-yl]phenyl]cyclopropanecarboxamide], `CN1CCN(C(=O)c2ccc(NC(=O)C3CC3)cc2N2CCC(C(F)(F)F)C2)C(c2ccccc2)C1` (single isomer, unassigned) [Example 199b, (2S, 3R) or (2R, 3S) or (2R, 3R) or (2S, 3S) N-[4-(4-methyl-2-phenylpiperazine-1-carbonyl)-3-[3-(trifluoromethyl)pyrrolidin-1-yl]phenyl]cyclopropanecarboxamide] is higher in Ki: 0.0631 to 0.251 µM for the first, 0.316 to 1 µM for the second.

`CN1CCN(C(=O)c2ccc(NC(=O)C3CC3)cc2N2CCC3(COC3)C2)C(c2ccccc2Cl)C1` (racemic) [Example 211, N-[4-[2-(2-chlorophenyl)-4-methylpiperazine-1-carbonyl]-3-(2-oxa-7-azaspiro[3.4]octan-7-yl)phenyl]cyclopropanecarboxamide] and `CN1CCN(C(=O)c2ccc(NC(=O)C3CC3)cc2N2CCC(F)(F)C2)C(c2ccccc2)C1` (racemic) [Example 202c, N-[3-(3,3-difluoropyrrolidin-1-yl)-4-(4-methyl-2-phenylpiperazine-1-carbonyl)phenyl]cyclopropanecarboxamide] fall in the same range of Ki: 0.0631 to 0.251 µM for the first, 0.0631 to 0.251 µM for the second.

`O=C(c1ccc(-c2nnc(C3CC3)[nH]2)cc1N1CCCC1)N1CCC(C(F)(F)F)CC1` [Example 154] and `Cc1ccn(-c2cc(NC(=O)C3CC3)ccc2C(=O)N2CCC(C(F)(F)F)CC2)n1` [Example 156] fall in the same range of Ki: 0.0631 to 0.251 µM for the first, 0.0631 to 0.251 µM for the second.

`CC1CCN(c2cc(NC(=O)C3CC3)ccc2C(=O)N2CCN(C)CC2c2ccccc2)C1` (single isomer, unassigned) [Example 64c, (2S, 3R) or (2R, 3S) or (2R, 3R) or (2S, 3S) N-[4-(4-methyl-2-phenylpiperazine-1-carbonyl)-3-(3-methylpyrrolidin-1-yl)phenyl] cyclopropanecarboxamide] and `CC1CC(C)CN(c2cc(NC(=O)C3CC3)ccc2C(=O)N2CCN(C)CC2c2ccccc2)C1` (racemic) [Example 68c, Syn N-[3-[3,5-dimethylpiperidin-1-yl]-4-(4-methyl-2-phenylpiperazine-1-carbonyl)phenyl]cyclopropanecarboxamide] cannot be ordered by Ki: at most 0.0501 µM for the first, at most 0.0501 µM for the second.

`O=C(Nc1ccc(C(=O)N2CCOCC2)c(N2CCCCCC2)c1)C1CC1` [Example 45, N-(3-(azepan-1-yl)-4-(morpholine-4-carbonyl)phenyl)cyclopropanecarboxamide] and `CCCN1CCN(C(=O)c2ccc(NC(=O)C3CC3)cc2N2CCCOCC2)CC1` [Example 3, N-[3-(1,4-oxazepan-4-yl)-4-(4-propylpiperazine-1-carbonyl)phenyl]cyclopropanecarboxamide] fall in the same range of Ki: 0.316 to 1 µM for the first, 0.316 to 1 µM for the second.

`O=C(Nc1ccc(C(=O)N2CCS(=O)(=O)CC2)c(-n2cc(C(F)(F)F)cn2)c1)C1CC1` [Example 182, N-[4-(1,1-dioxo-1,4-thiazinane-4-carbonyl)-3-[4-(trifluoromethyl)pyrazolyl]phenyl]cyclopropanecarboxamide] and `CN1CCN(C(=O)c2ccc(NC(=O)C3CC3)cc2N2CCCC2)C(c2cnn(C)c2)C1` (racemic) [Example 87, N-[4-[4-methyl-2-(1-methylpyrazol-4-yl)piperazine-1-carbonyl]-3-pyrrolidin-1-ylphenyl]Cyclopropanecarboxamide] fall in the same range of Ki: 0.316 to 1 µM for the first, 0.316 to 1 µM for the second.

Compared with `C[C@@H]1C[C@@H](C)CN(c2cc(NC(=O)C3CC3)ccc2-c2nnc(Sc3ccccc3)n2C)C1` (relative stereo) [Example 114a, N-[3-(3,5-dimethylpiperidin-1-yl)-4-(4-methyl-5-phenylsulfanyl-1,2,4-triazol-3-yl)phenyl]cyclopropanecarboxamide], `Cn1c(Sc2ccccn2)nnc1-c1ccc(NC(=O)C2CC2)cc1N1CCCC1` [Example 116, N-[4-(4-methyl-5-pyridin-2-ylsulfanyl-1,2,4-triazol-3-yl)-3-pyrrolidin-1-ylphenyl]cyclopropanecarboxamide] is higher in Ki: 0.0631 to 0.251 µM for the first, 1.26 to 6.31 µM for the second.

Compared with `CN1CCN(C(=O)c2ccc(NC(=O)C3CC3)cc2N2CCCC2)C(c2cccnc2)C1` (racemic) [Example 173, N-[4-(4-methyl-2-pyridin-3-ylpiperazine-1-carbonyl)-3-pyrrolidin-1-ylphenyl]cyclopropanecarboxamide], `CN1CCN(C(=O)c2ccc(NC(=O)C3CC3)nc2N2CCCC2)C(c2ccccc2)C1` (single isomer, unassigned) [Example 149b, (2R or 2S) N-[5-(4-methyl-2-phenylpiperazine-1-carbonyl)-6-pyrrolidin-1-ylpyridin-2-yl] cyclopropanecarboxamide] is higher in Ki: 0.316 to 1 µM for the first, 1.26 to 6.31 µM for the second.

`CCCN1CCN(C(=O)c2ccc(NC(=O)C(C)C)cc2N2CCCCCC2)CC1` [Example 93, N-(3-(azepan-1-yl)-4-(4-propylpiperazine-1-carbonyl)phenyl)isobutyramide] and `CCCN1CCN(C(=O)c2ccc(NC(=O)C3CC3)cc2NC2CCCC2)CC1` [Example 20, N-[3-(cyclopentylamino)-4-(4-propylpiperazine-1-carbonyl)phenyl]cyclopropanecarboxamide] fall in the same range of Ki: 0.316 to 1 µM for the first, 0.316 to 1 µM for the second.

First: O=C(Nc1ccc(C(=O)N2CCN(Cc3ccon3)CC2c2ccccc2)c(N2CCCCCC2)c1)C1CC1 (stereo not shown) [Example 82, N-[3-(azepan-1-yl)-4-[4-(1,2-oxazol-3-ylmethyl)-2-phenylpiperazine-1-carbonyl]phenyl]Cyclopropanecarboxamide]
Second: O=C(Nc1ccc(C(=O)N2CC[S+]([O-])CC2c2ccccc2)c(N2CCCC2)c1)C1CC1 (racemic) [Example 169, N-[4-(1-oxo-3-phenyl-1,4-thiazinane-4-carbonyl)-3-pyrrolidin-1-ylphenyl]cyclopropanecarboxamide]
The Ki of the first is lower: at most 0.0501 µM for the first, 1.26 to 6.31 µM for the second. The first binds more tightly here.

In the case of `Cc1nnc(-c2ccc(C(=O)N3CCC4(CC3)CC4)c(-n3ccc(C(F)(F)F)n3)c2)[nH]1` [Example 214, 6-azaspiro[2.5]octan-6-yl-[4-(5-methyl-4H-1,2,4-triazol-3-yl)-2-[3-(trifluoromethyl)pyrazol-1-yl]phenyl]methanone], the Ki is reported as at most 0.0501 µM.
